Data as given in ChEMBL document CHEMBL5523669, “Sialyl LewisX glycomimetics bearing an extended anionic chain targeting E- and P- selectin binding sites” (Bioorg Med Chem, 2024).
Active and inactive are the calls of the source. The rule behind the calls is not given here.

Assays:
[1] = target: T1, E-selectin (Homo sapiens) (UniProt P16581); experiment: Reduction in human HL-60 cell adhesion in E-Selectin Fc coated plates at 0.1 to 500 uM measured after 1 hr incubation by Cell-selectin adhesion assay; format: cell-based; conditions: filed as antagonist, dose 0.1-500 µM
T1 sequence (whole entry): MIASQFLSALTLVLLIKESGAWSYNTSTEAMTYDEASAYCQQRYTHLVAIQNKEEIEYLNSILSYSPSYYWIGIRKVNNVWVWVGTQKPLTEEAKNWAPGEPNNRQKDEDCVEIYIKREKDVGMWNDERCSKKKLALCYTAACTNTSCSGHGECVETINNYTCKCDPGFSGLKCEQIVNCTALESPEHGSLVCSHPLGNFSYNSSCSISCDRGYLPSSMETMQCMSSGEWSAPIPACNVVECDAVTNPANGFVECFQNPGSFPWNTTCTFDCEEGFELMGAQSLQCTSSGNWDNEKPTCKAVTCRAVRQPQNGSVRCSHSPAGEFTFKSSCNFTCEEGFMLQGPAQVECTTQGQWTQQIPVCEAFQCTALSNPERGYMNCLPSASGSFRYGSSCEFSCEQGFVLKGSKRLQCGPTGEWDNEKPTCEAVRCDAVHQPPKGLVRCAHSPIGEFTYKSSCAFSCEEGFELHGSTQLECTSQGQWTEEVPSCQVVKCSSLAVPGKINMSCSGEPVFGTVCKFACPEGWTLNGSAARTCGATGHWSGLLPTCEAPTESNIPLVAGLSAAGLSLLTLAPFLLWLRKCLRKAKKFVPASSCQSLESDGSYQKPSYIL

HL-60 = experiment: Reduction in human HL-60 cell adhesion in E-Selectin Fc coated plates measured after 1 hr incubation by Cell-selectin adhesion assay; format: cell-based; conditions: filed as antagonist, dose 0.1-500 µM
P-selectin = target: T2, P-selectin (Homo sapiens, UniProt P16109); experiment: Antagonist activity at recombinant human P-selectin assessed as inhibition of P-selection binding to homodimer human PSGL-1-Fc interaction measured after 30 mins by surface plasmon resonance (SPR) spectroscopy
T2 sequence (P16109 whole entry): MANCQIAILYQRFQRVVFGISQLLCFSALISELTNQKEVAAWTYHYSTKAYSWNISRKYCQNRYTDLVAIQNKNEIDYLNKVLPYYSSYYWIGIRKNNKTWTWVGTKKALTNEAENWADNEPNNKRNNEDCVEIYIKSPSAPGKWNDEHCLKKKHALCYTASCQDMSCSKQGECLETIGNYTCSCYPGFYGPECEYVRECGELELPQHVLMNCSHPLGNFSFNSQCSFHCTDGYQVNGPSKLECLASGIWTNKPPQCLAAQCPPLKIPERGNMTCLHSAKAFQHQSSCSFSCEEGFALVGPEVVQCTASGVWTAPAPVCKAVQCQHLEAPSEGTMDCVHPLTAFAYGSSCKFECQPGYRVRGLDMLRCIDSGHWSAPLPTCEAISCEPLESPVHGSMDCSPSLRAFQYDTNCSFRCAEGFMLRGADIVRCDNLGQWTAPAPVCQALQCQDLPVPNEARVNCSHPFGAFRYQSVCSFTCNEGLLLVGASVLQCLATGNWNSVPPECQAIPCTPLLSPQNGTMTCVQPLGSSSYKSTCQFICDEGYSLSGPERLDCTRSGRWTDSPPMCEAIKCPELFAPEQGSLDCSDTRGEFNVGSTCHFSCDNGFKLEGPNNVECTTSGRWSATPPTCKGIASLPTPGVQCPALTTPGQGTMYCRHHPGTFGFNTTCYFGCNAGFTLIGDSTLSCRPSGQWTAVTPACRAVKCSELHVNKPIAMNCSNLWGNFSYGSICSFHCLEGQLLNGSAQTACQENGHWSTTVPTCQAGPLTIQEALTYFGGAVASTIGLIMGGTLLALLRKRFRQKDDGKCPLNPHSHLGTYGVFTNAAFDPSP

Row | Structure (SMILES) | Activity [1] | Activity (HL-60) | IC50 (P-selectin)
1 | CC(=O)N[C@H]1[C@H]([C@H](O)[C@H](O)CO)O[C@@](O[C@H]2[C@@H](O)[C@@H](CO)O[C@@H](O[C@@H]([C@H](O[C@@H]3O[C@@H](C)[C@@H](O)[C@@H](O)[C@@H]3O)[C@H](C=O)NC(C)=O)[C@H](O)CO)[C@@H]2O)(C(=O)O)C[C@@H]1O | Active | Dose-Dependent Effect | –
2 | CC(C)OC(=O)[C@H](O[C@@H]1O[C@@H](C)[C@@H](O)[C@@H](O)[C@@H]1O)[C@@H](O[C@@H]1O[C@H](CO)[C@H](O)[C@H](O[C@H](Cc2ccccc2)C(=O)O)[C@H]1OC(=O)c1ccccc1)C(=O)OC(C)C | – | – | 162 µM
3 | CC(C)OC(=O)[C@H](O[C@@H]1O[C@H](CO)[C@H](OC(=O)c2ccccc2)[C@H](O[C@H](Cc2ccccc2)C(=O)O)[C@H]1OC(=O)c1ccccc1)[C@@H](O[C@@H]1O[C@@H](C)[C@@H](O)[C@@H](O)[C@@H]1O)C(=O)O[C@@H](C)CCCn1cc(CCCCC(=O)Nc2ccc(OP(=O)(O)O)cc2)nn1 | Active | – | 290 µM
